Here are results for 51 compounds from publication PMC11995724, “Antibiotic target discovery by integrated phenotypic and activity-based profiling of electrophilic fragments” (Cell chemical biology, 2025).

Molecules are shown by their SMILES. Where a name gives a salt, the structure may show the parent alone.

The data set is described as follows: in vitro. Particulars: human, hek293t cells.
A word on the viability: it is a read-out of living cells in per cent, often relative to untreated cells. For the compound `C[C@H]1CN(C(=O)CCl)Cc2cccn21` [5-B03, 2-chloro-1-[(4S)-4-methyl-1H,2H,3H,4H-pyrrolo[1,2-a]pyrazin-2-yl]ethan-1-one], the viability at 48 h, 25 µM stood at 0.688%.

As for `O=C(CCl)Nc1c(Cl)cccc1C(F)(F)F` [5-B04, 2-chloro-N-[2-chloro-6-(trifluoromethyl)phenyl]acetamide], the viability at 48 h, 25 µM was 1.62%.

Turning to `C=CCN(Cc1cccs1)C(=O)CCl` [5-B06, 2-chloro-N-(prop-2-en-1-yl)-N-[(thiophen-2-yl)methyl]acetamide], the viability at 48 h, 25 µM came out at 0.0461%.

Regarding `COCc1nc(C2CCCCCN2C(=O)CCl)no1` (stereo not drawn) [5-B07, 2-chloro-1-{2-[5-(methoxymethyl)-1,2,4-oxadiazol-3-yl]azepan-1-yl}ethan-1-one], the viability at 48 h, 25 µM was 1.24%.

As for `CCN(C(=O)CCl)c1cccc2ccccc12` [5-B08, 2-chloro-N-ethyl-N-(naphthalen-1-yl)acetamide], the viability at 48 h, 25 µM is 0.156%.

On to `CC(Cl)C(=O)NCc1ccco1` (stereo not drawn) [5-B09, 2-chloro-N-[(furan-2-yl)methyl]propanamide], for which the viability at 48 h, 25 µM came to 96.6%.

For the compound `CC(Cl)C(=O)Nc1cccc(C#N)c1` (stereo not drawn) [5-B10, 2-chloro-N-(3-cyanophenyl)propanamide], the viability at 48 h, 25 µM came out at 77.3%.

For the compound `CCc1nocc1CN(C)C(=O)CCl` [5-B11, 2-chloro-N-[(3-ethyl-1,2-oxazol-4-yl)methyl]-N-methylacetamide], the viability at 48 h, 25 µM worked out at 1.49%.

Turning to `COC(=O)c1ccccc1NC(=O)CCl` [5-B12, methyl 2-(2-chloroacetamido)benzoate], the viability at 48 h, 25 µM was determined as 77.7%.

Consider `Cc1cc(Cl)ccc1CN1CCN(C(=O)C(C)Cl)CC1` (stereo not drawn) [5-B13, 2-chloro-1-{4-[(4-chloro-2-methylphenyl)methyl]piperazin-1-yl}propan-1-one], for which the viability at 48 h, 25 µM came out at 94.8%.

In the case of `O=C(CCl)Nc1ccccn1` [5-B14, 2-chloro-N-(pyridin-2-yl)acetamide hydrochloride], the viability at 48 h, 25 µM stood at 73.1%.

For the compound `O=C(CCl)N(Cc1ccoc1)C1CCCCC1` [5-B15, 2-chloro-N-cyclohexyl-N-[(furan-3-yl)methyl]acetamide], the viability at 48 h, 25 µM amounted to 0.638%.

For the compound `O=C(CCl)Nc1c(Cl)cc(Cl)cc1Cl` [5-B16, 2-chloro-N-(2,4,6-trichlorophenyl)acetamide], the viability at 48 h, 25 µM was found to be 123%.

Turning to `CC(Cl)C(=O)N(Cc1nnc(-c2ccccc2Cl)o1)C1CC1` (stereo not drawn) [5-B17, 2-chloro-N-{[5-(2-chlorophenyl)-1,3,4-oxadiazol-2-yl]methyl}-N-cyclopropylpropanamide], the viability at 48 h, 25 µM came to 134%.

Take `CC(Cl)C(=O)Nc1cccc(CSc2ccccn2)c1` (stereo not drawn) [5-B18, 2-chloro-N-{3-[(pyridin-2-ylsulfanyl)methyl]phenyl}propanamide]: the viability at 48 h, 25 µM came out at 119%.

For `CC(Cl)C(=O)NC1CC(C)N(c2ccccc2)C1=O` (stereo not drawn) [5-B19, 2-chloro-N-(5-methyl-2-oxo-1-phenylpyrrolidin-3-yl)propanamide], the viability at 48 h, 25 µM was found to be 112%.

`CC(Cl)C(=O)Nc1sc2c(c1C#N)CCCCC2` (stereo not drawn) [5-B20, 2-chloro-N-{3-cyano-4H,5H,6H,7H,8H-cyclohepta[b]thiophen-2-yl}propanamide]: the viability at 48 h, 25 µM turned out to be 60%.

In the case of `CC1CN(Cc2ccccc2)CC(C)N(C(=O)C(C)Cl)C1` (stereo not drawn) [5-B21, 1-(4-benzyl-2,6-dimethyl-1,4-diazepan-1-yl)-2-chloropropan-1-one], the viability at 48 h, 25 µM turned out to be 122%.

Regarding `CC(Cl)C(=O)N(C)Cc1ncc(C2CC2)o1` (stereo not drawn) [5-B22, 2-chloro-N-[(5-cyclopropyl-1,3-oxazol-2-yl)methyl]-N-methylpropanamide], the viability at 48 h, 25 µM was found to be 66.9%.

Consider `NC(=O)CCN(C(=O)CCl)c1ccc(F)cc1` [5-C03, 3-[2-chloro-N-(4-fluorophenyl)acetamido]propanamide], for which the viability at 48 h, 25 µM was found to be 1.62%.

For the compound `Cn1nccc1CN1C[C@@H](F)C[C@H]1CNC(=O)CCl` [5-C04, 2-chloro-N-{[(2S,4S)-4-fluoro-1-[(1-methyl-1H-pyrazol-5-yl)methyl]pyrrolidin-2-yl]methyl}acetamide], the viability at 48 h, 25 µM is 117%.

Turning to `COc1cc(NC(=O)CCl)c(OC)cc1Cl` [5-C05, 2-chloro-N-(4-chloro-2,5-dimethoxyphenyl)acetamide], the viability at 48 h, 25 µM worked out at 0.731%.

As for `Cc1cccc(NC(=O)[C@@H]2CCCN2C(=O)CCl)n1` [5-C06, (2S)-1-(2-chloroacetyl)-N-(6-methylpyridin-2-yl)pyrrolidine-2-carboxamide], the viability at 48 h, 25 µM turned out to be 0.946%.

With `O=C(CCl)NCC1CCCCN1C(=O)C(F)(F)F` (stereo not drawn) [5-C07, 2-chloro-N-{[1-(2,2,2-trifluoroacetyl)piperidin-2-yl]methyl}acetamide], the viability at 48 h, 25 µM amounted to 1.83%.

As for `CCc1nc(C2CCCN2C(=O)CCl)no1` (stereo not drawn) [5-C08, 2-chloro-1-[2-(5-ethyl-1,2,4-oxadiazol-3-yl)pyrrolidin-1-yl]ethan-1-one], the viability at 48 h, 25 µM worked out at 1.18%.

As for `O=C(CCl)NC1CCN(C(=O)C2COc3ccccc3O2)CC1` (stereo not drawn) [5-C09, 2-chloro-N-[1-(2,3-dihydro-1,4-benzodioxine-2-carbonyl)piperidin-4-yl]acetamide], the viability at 48 h, 25 µM stood at 1.13%.

Consider `CNC(=O)c1ccc(O)c(NC(=O)CCl)c1` [5-C10, 3-(2-chloroacetamido)-4-hydroxy-N-methylbenzamide], for which the viability at 48 h, 25 µM amounted to 114%.

In the case of `CC(C)C1C(=O)Nc2ccc(Cl)cc2N1C(=O)CCl` (stereo not drawn) [5-C11, 6-chloro-4-(2-chloroacetyl)-3-(propan-2-yl)-1,2,3,4-tetrahydroquinoxalin-2-one], the viability at 48 h, 25 µM is -0.0252%.

With `Cc1cc(CN(C(=O)CCl)c2csnc2C)cs1` [5-C12, 2-chloro-N-(3-methyl-1,2-thiazol-4-yl)-N-[(5-methylthiophen-3-yl)methyl]acetamide], the viability at 48 h, 25 µM stood at 0.6%.

In the case of `Cc1c(CN(CC2CC=CCC2)C(=O)CCl)cnn1C` (stereo not drawn) [5-C14, 2-chloro-N-[(cyclohex-3-en-1-yl)methyl]-N-[(1,5-dimethyl-1H-pyrazol-4-yl)methyl]acetamide], the viability at 48 h, 25 µM is 0.469%.

Consider `Cn1nc(C(F)(F)F)cc1CN(C(=O)CCl)C1CCCC1` [5-C16, 2-chloro-N-cyclopentyl-N-{[1-methyl-3-(trifluoromethyl)-1H-pyrazol-5-yl]methyl}acetamide], for which the viability at 48 h, 25 µM came out at 0.815%.

On to `COc1ccccc1NC(=O)c1ccc(NC(=O)C(C)Cl)cc1` (stereo not drawn) [5-C17, 4-(2-chloropropanamido)-N-(2-methoxyphenyl)benzamide], for which the viability at 48 h, 25 µM was 58%.

On to `O=C(CCl)NCC12CCCCC1C2(F)F` (stereo not drawn) [5-C18, 2-chloro-N-({7,7-difluorobicyclo[4.1.0]heptan-1-yl}methyl)acetamide], for which the viability at 48 h, 25 µM is 8.39%.

For `CC(Cl)C(=O)Nc1ccc2c(c1)CCC2` (stereo not drawn) [5-C19, 2-chloro-N-(2,3-dihydro-1H-inden-5-yl)propanamide], the viability at 48 h, 25 µM was 68.8%.

As to `COc1cccc2c1CCC2(CO)NC(=O)CCl` (stereo not drawn) [5-C20, 2-chloro-N-[1-(hydroxymethyl)-4-methoxy-2,3-dihydro-1H-inden-1-yl]acetamide], the viability at 48 h, 25 µM is 58.2%.

On to `CC(Cl)C(=O)Nc1sccc1C(N)=O` (stereo not drawn) [5-C21, 2-(2-chloropropanamido)thiophene-3-carboxamide], for which the viability at 48 h, 25 µM was found to be 85.4%.

Regarding `CN1CCN(C(=O)Cc2cccc(NC(=O)CCl)c2)CC1` [5-C22, 2-chloro-N-{3-[2-(4-methylpiperazin-1-yl)-2-oxoethyl]phenyl}acetamide], the viability at 48 h, 25 µM came to 1.44%.

Turning to `O=C(CCl)N1CCN(C(=O)c2cn(C3CC3)nn2)CC1` [5-D03, 2-chloro-1-[4-(1-cyclopropyl-1H-1,2,3-triazole-4-carbonyl)piperazin-1-yl]ethan-1-one], the viability at 48 h, 25 µM came out at 2.35%.

As to `CCOC(=O)c1c(NC(=O)C(C)Cl)sc2c1CCC(C)C2` (stereo not drawn) [5-D04, ethyl 2-(2-chloropropanamido)-6-methyl-4,5,6,7-tetrahydro-1-benzothiophene-3-carboxylate], the viability at 48 h, 25 µM turned out to be 90.9%.

As for `O=C(NC1CCCN(C(=O)CCl)C1)c1cc2ccccc2o1` (stereo not drawn) [5-D05, N-[1-(2-chloroacetyl)piperidin-3-yl]-1-benzofuran-2-carboxamide], the viability at 48 h, 25 µM worked out at 0.852%.

`CC(Cl)C(=O)N(C)c1ccccc1` (stereo not drawn) [5-D06, 2-chloro-N-methyl-N-phenylpropanamide]: the viability at 48 h, 25 µM turned out to be 102%.

`Cc1cccc(N(Cc2c(C3CC3)cnn2C)C(=O)CCl)c1` [5-D07, 2-chloro-N-[(4-cyclopropyl-1-methyl-1H-pyrazol-5-yl)methyl]-N-(3-methylphenyl)acetamide]: the viability at 48 h, 25 µM came out at 0.857%.

For the compound `CC(Cl)C(=O)NC(=O)Nc1ccc2c(c1)OCCO2` (stereo not drawn) [5-D08, 3-(2-chloropropanoyl)-1-(2,3-dihydro-1,4-benzodioxin-6-yl)urea], the viability at 48 h, 25 µM was determined as 84.1%.

As for `CCN(Cc1ccc(OC)c(F)c1)C(=O)CCl` [5-D09, 2-chloro-N-ethyl-N-[(3-fluoro-4-methoxyphenyl)methyl]acetamide], the viability at 48 h, 25 µM came to 1.38%.

Turning to `N#Cc1c(NC(=O)CCl)oc(-c2ccco2)c1-c1ccco1` [5-D10, 2-chloro-N-[4'-cyano-2'-(furan-2-yl)-[2,3'-bifuran]-5'-yl]acetamide], the viability at 48 h, 25 µM is 45.5%.

Turning to `CCN(C(=O)CCl)C1CCCCC1` [5-D11, 2-chloro-N-cyclohexyl-N-ethylacetamide], the viability at 48 h, 25 µM was found to be 0.918%.

With `COc1ccc(CCNC(=O)C(C)Cl)cc1` (stereo not drawn) [5-D12, 2-chloro-N-[2-(4-methoxyphenyl)ethyl]propanamide], the viability at 48 h, 25 µM stood at 104%.

With `CC(Cl)C(=O)NCCN1CCn2nccc2C1` (stereo not drawn) [5-D13, 2-chloro-N-(2-{4H,5H,6H,7H-pyrazolo[1,5-a]pyrazin-5-yl}ethyl)propanamide], the viability at 48 h, 25 µM turned out to be 98.4%.

As for `CC(C)CN(C(=O)CCl)C1CC1` [5-D14, 2-chloro-N-cyclopropyl-N-(2-methylpropyl)acetamide], the viability at 48 h, 25 µM was determined as 1.19%.

As to `CN(Cc1cc(-c2ccccc2)[nH]n1)C(=O)CCl` [5-D15, 2-chloro-N-methyl-N-[(5-phenyl-1H-pyrazol-3-yl)methyl]acetamide], the viability at 48 h, 25 µM amounted to 0.109%.

In the case of `CN(CCOc1ccc(Cl)cc1)C(=O)CCl` [5-D16, 2-chloro-N-[2-(4-chlorophenoxy)ethyl]-N-methylacetamide], the viability at 48 h, 25 µM turned out to be 0.377%.
